According to ChEMBL document CHEMBL1201862, “PubChem BioAssay data set” (2004):
Values belong to the molecule of their own block, whether it stands above or below them. Active and inactive are the calls of the source.

How the values were obtained:
[1] = target: T1, Polyadenylate-binding protein 1 (Homo sapiens, UniProt P11940); experiment: MLLE binding blockers, Cy5 peptide tracer – biochemical, fluorescence polarization, Cy5-PAM2 peptide, secondary, miRNA deadenylation inhibitor project, dose response (AID 602260); format: functional; conditions: read-out: IC50_Mean
[2] = target: T2, Tyrosine-protein phosphatase non-receptor type 11 (Homo sapiens, UniProt Q06124); experiment: PTPN11 enzyme inhibitors – biochemical, selectivity assay for STEP inhibitor project, dose response (AID 602367); format: functional; conditions: read-out: IC50_Mean
T2 sequence (Q06124 whole entry): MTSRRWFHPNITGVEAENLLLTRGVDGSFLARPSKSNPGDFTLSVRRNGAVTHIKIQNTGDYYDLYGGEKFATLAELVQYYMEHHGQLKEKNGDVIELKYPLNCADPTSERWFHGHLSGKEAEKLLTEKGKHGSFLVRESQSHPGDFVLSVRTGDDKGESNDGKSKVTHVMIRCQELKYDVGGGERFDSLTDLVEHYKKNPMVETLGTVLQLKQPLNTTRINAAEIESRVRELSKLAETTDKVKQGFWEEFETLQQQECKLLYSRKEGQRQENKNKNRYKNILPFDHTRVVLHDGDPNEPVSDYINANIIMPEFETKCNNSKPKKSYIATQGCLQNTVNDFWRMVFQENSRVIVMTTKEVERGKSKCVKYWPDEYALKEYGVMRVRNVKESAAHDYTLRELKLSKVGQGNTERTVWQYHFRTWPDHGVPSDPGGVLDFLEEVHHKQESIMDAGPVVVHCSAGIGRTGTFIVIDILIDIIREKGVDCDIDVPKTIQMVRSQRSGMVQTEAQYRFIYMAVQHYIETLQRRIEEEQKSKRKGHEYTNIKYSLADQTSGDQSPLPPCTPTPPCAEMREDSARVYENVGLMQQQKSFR

[3] = target: T1, Polyadenylate-binding protein 1; experiment: MLLE domain peptide-binding blockers, IC50 – biochemical, fluorescence polarization, FITC-PAM2 peptide, dose response (AID 602259); format: functional; conditions: read-out: IC50_Mean
[4] = target: T3, Tyrosine-protein phosphatase non-receptor type 5 (Homo sapiens, UniProt P54829); experiment: PTPN5 enzyme inhibition – biochemical, fluorescence intensity, uHTS hits, confirmation (AID 602372); format: functional; conditions: read-out: IC50_Mean
T3 sequence (P54829 whole entry): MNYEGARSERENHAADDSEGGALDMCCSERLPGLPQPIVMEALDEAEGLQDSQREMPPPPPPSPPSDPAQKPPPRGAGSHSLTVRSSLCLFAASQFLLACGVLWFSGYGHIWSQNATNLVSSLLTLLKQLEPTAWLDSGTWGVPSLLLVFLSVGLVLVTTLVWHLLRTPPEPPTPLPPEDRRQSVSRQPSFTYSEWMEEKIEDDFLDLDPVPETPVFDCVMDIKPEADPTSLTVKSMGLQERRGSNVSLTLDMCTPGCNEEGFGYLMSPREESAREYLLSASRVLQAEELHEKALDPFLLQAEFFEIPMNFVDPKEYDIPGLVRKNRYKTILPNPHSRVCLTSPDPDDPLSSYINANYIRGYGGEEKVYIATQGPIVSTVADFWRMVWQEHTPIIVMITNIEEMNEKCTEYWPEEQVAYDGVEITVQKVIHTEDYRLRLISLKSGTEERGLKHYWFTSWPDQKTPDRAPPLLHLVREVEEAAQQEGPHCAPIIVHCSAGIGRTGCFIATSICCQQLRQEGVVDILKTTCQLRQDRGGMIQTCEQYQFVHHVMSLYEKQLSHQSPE

[5] = target: Dual specificity protein phosphatase 3 (Homo sapiens, UniProt P51452); experiment: VHR phosphatase inhibition, dose response, selectivity assay for STEP inhibitor project, biochemical (AID 602374); format: functional; conditions: read-out: IC50_Mean
Caspase-6 = target: T4, Caspase-6 (Homo sapiens, UniProt P55212); experiment: inhibition of CASP6 peptide cleavage – biochemical, VEID-R110 fluorescence, cherry-pick, dose response (AID 720632)
T4 sequence (P55212 whole entry): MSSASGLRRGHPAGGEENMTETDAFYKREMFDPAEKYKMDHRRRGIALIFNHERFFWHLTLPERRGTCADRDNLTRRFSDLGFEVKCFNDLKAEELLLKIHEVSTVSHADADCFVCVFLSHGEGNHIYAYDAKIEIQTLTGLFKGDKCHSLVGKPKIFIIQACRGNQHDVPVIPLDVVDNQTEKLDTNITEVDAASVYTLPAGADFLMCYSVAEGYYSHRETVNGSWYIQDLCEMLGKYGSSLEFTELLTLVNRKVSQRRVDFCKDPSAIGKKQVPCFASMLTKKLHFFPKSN

[6] = target: T5, Histone-lysine N-methyltransferase NSD2 (Homo sapiens, UniProt O96028); format: biochemical
T5 sequence (O96028 whole entry): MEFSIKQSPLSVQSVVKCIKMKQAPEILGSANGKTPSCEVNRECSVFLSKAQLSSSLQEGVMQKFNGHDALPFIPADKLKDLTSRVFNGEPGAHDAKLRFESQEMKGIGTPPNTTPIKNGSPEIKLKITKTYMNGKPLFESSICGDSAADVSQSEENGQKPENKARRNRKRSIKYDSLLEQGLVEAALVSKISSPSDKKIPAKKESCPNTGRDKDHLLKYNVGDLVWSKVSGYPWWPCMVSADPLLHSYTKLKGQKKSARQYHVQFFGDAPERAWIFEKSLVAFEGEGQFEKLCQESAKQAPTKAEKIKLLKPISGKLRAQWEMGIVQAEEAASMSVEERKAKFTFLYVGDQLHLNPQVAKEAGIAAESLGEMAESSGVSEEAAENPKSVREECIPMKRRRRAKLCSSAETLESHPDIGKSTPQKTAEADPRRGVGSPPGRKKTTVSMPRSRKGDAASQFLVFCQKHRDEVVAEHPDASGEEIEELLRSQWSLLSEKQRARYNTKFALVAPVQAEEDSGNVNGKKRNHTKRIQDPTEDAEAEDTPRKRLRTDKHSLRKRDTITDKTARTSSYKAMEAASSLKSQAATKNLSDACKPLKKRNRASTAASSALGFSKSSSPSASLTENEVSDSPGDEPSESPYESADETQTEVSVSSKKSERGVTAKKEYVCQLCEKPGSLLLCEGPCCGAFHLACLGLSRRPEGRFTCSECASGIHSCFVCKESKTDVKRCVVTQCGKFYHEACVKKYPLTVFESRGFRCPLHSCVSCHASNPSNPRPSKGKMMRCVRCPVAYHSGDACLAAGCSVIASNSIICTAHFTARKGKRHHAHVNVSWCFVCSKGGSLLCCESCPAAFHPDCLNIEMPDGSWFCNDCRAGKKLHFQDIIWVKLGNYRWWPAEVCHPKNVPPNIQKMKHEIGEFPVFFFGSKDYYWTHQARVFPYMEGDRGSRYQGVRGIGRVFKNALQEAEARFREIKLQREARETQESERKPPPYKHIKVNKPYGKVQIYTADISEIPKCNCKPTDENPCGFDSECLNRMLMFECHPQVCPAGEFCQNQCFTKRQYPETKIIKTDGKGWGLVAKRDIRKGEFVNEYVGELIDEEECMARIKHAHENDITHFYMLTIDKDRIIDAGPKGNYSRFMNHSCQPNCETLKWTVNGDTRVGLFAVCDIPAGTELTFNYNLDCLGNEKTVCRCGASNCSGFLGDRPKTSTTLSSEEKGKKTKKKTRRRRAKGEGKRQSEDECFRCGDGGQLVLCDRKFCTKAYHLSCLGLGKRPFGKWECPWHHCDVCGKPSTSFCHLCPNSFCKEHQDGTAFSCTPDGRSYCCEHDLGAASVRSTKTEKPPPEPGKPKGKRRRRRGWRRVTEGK

Insulin-degrading enzyme [7] = target: T6, Insulin-degrading enzyme (Homo sapiens, UniProt P14735); experiment: recombinant IDE activation, cell-free – biochemical, fluorescence polarization, counter-screen for IDE activator project, dose response (AID 588681)
T6 sequence (P14735 whole entry): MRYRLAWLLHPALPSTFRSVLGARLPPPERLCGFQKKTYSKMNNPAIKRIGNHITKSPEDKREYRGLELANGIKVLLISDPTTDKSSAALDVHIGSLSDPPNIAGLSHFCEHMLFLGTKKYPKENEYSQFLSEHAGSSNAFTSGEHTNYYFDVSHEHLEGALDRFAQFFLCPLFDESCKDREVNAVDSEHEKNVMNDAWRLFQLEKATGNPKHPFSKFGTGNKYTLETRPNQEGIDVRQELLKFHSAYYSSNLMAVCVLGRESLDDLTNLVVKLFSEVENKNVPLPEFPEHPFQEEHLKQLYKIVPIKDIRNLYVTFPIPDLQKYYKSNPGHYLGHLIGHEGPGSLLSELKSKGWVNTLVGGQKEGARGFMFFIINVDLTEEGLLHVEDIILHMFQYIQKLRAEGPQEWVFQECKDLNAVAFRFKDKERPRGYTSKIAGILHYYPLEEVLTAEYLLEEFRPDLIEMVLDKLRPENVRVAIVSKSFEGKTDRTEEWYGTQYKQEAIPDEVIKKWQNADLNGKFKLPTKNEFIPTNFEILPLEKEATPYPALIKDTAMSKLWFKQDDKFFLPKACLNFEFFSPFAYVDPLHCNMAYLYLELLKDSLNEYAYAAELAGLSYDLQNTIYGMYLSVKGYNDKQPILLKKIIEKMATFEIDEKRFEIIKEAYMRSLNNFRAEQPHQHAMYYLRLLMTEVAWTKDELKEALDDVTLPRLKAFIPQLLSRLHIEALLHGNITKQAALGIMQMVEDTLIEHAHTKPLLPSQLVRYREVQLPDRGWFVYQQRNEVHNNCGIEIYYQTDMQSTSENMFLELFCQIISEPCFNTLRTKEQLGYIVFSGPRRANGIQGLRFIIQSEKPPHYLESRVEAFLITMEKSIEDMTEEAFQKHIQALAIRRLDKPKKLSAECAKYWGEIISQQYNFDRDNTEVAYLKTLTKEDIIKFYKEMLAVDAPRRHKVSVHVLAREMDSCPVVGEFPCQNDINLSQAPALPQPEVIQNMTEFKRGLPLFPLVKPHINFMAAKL

Insulin-degrading enzyme [8] = target: T6, Insulin-degrading enzyme; experiment: cellular IDE activation of Abeta substrate cleavage – fluorescence polarization, HEK cells, dose response (AID 588439); format: functional, cell-based
HEK293 [9] = experiment: membrane integrity loss in HEK cells – cell-based, fluorescence, cytotoxicity control for IDE activator project, dose response (AID 588440); format: functional; conditions: Homo sapiens;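 further: cytotoxicity by LDH release measuring loss of membrane integrity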
HEK293 [10] = experiment: optical interference in Abeta FP readout, dose response, artefact control for IDE activator project, biochemical, fluorescence polarization (AID 588442); format: functional, cell-based; conditions: Homo sapiens
[11] = intracellular Trypanosoma cruzi inhibitors in host cells – cell-based, plate reader, cherry-pick samples, set 3, dose response (AID 651818); format: functional;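 further: compounds incubated with infected cells for about four days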
[12] = target: T7, DNA repair and recombination protein RAD54-like (Homo sapiens, UniProt Q92698); experiment: RAD54 Holliday junction migration blockers – biochemical, fluorescence, cherry-picked samples, dose series, confirmation (AID 651657); format: functional
T7 sequence (Q92698 whole entry): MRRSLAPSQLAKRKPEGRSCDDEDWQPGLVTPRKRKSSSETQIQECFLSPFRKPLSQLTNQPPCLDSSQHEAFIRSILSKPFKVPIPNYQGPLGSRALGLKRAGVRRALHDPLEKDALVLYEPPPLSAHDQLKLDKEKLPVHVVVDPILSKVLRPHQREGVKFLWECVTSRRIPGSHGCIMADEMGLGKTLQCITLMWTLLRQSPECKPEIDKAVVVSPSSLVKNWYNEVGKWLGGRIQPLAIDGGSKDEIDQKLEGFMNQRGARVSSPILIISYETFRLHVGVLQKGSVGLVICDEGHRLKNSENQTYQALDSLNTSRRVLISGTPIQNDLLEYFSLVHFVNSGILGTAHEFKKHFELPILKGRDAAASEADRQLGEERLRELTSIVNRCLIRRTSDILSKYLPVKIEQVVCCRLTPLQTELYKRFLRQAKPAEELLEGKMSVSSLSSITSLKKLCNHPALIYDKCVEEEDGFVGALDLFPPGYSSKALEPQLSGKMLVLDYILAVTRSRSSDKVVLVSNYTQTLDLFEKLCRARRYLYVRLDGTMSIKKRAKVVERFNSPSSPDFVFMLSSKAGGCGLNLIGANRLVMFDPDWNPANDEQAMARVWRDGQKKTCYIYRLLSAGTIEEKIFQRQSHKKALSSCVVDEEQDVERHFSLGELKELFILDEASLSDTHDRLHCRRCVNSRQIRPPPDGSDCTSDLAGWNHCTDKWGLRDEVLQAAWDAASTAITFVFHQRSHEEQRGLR

[13] = target: T8, DNA repair protein RAD52 homolog (Homo sapiens, UniProt P43351); format: functional, biochemical
T8 sequence (P43351 whole entry): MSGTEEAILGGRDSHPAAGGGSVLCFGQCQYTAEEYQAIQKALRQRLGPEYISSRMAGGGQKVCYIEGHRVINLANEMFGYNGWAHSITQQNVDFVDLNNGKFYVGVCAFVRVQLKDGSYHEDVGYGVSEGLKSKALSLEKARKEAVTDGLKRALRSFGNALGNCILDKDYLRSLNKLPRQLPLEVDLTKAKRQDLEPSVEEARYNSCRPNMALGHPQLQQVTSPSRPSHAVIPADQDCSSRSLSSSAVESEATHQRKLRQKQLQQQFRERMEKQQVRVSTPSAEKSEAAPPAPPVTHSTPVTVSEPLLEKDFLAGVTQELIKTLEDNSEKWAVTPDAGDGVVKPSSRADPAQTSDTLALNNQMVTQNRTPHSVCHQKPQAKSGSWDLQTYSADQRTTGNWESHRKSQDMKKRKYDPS

T1 sequence (P11940 whole entry): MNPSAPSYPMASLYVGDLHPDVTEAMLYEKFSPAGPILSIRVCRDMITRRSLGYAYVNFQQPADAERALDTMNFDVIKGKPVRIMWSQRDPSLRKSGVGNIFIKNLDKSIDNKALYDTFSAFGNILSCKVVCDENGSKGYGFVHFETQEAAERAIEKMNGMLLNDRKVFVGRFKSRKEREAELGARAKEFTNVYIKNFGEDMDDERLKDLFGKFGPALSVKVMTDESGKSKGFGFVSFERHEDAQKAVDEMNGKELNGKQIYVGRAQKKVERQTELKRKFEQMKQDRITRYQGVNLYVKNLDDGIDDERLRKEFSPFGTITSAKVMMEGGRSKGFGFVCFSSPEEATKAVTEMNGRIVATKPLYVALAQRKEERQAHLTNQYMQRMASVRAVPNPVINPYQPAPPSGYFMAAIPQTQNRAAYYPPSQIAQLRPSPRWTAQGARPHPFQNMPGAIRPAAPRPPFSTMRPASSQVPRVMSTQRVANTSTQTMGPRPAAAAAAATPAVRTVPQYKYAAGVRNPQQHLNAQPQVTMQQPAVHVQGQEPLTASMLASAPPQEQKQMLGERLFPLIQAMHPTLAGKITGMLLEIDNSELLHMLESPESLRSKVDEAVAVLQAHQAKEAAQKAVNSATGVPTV
Chain of Dual specificity protein phosphatase 3 (P51452 whole entry): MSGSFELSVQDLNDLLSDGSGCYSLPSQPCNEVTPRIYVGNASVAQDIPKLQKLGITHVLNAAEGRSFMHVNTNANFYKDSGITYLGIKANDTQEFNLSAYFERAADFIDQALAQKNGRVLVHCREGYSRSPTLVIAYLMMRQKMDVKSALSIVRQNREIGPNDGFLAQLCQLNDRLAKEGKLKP

- IC50 [1]: > 66 µM (inactive)
- IC50 [2]: 1.04 µM (active)
- IC50 [3]: > 66 µM (inactive)
- IC50 [4]: 33.4 µM (inactive)
- IC50 [5]: 3.43 µM (active)
- AC50 (Caspase-6): 2.15 µM (active)
- AC50 [6]: 6.49 µM (active)
SMILES: Nc1ccc2c(O)cc(S(=O)(=O)O)cc2c1

SMILES: CC(=O)Nc1ccc(S(=O)(=O)NCCc2ccccn2)cc1
- EC50 (Insulin-degrading enzyme [7]): > 54.7 µM (inactive)
- EC50 (Insulin-degrading enzyme [8]): > 54.7 µM (inactive)
- IC50 (HEK293 [9]): > 89.2 µM (inactive)
- EC50 (HEK293 [10]): > 56 µM (inactive)

SMILES: C[C@H](CO)N1C[C@H](C)[C@H](CN(C)S(=O)(=O)c2ccc(F)cc2)Oc2ccc(NS(=O)(=O)c3ccc(F)cc3)cc2C1=O
- AC50 [11]: 7.7 µM (active)

- AC50 [12]: 27.2 µM (active)
- AC50 [13]: 9 µM (active)
SMILES: CN(C)CCNc1ncnc2sc(-c3ccccc3)cc12
